Measured values published in patent publication US7112676B2, “Pyrimido compounds having antiproliferative activity” (Hoffmann-La Roche Inc., priority 2002, dated 2006).

Tests used:
[1] = tested on: VEGF-stimulated HUVEC; assay: VEGF-stimulated HUVEC proliferation assay (BrdU); format: cell-based; conditions: Homo sapiens, VEGF 20 ng per mL, BrdU labeling, 24 hour exposure, read-out: IC50 (μM) of VEGF and FGF-Stimulated HUVEC Proliferation Assays HUVEC/VEFG
Experimental: The antiproliferative activity of test compounds of this invention in cell-based assays was evaluated by BrdU assay using the BrdU kit (Roche Biochemicals 1-647-229). Human umbilical vein endothelial cells (HUVEC, Clonetics CC-2519) were cultured in EGM-2 (Clonetics CC-3162) medium and seeded at 10000 cells per well in a volume of 200 μL of EGM-2 (Clonetics CC-3162) media in a 96-well flat bottom plates (Costar 3595) overnight. After 24 hours of growth at 37° C. with 5% CO2, the incubation media was removed slowly by aspiration and the content of each well was washed with 300 μL pre-warmed EBM-2 (Clonetics CC-3156) containing 50 μg per mL of gentamycin and 50 ng per mL of amphotercin-B (Clonetics CC-4083). Subsequently, the remaining media was again aspirated and replaced with 160 μL per well of serum starvation media (EBM-2 supplemented with 1% heat inactivated FBS (Clonetics CC-4102), 50 μg per mL gentamycin and 50 ng per mL of amphotercin-B (Clonetics CC-4083), 10 units per mL of Wyeth-Ayerst heparin (NDC0641-0391-25), and 2 mM L-glutamine (GIBCO 25030-081). After serum starving the cells for 24 hours, 20 μL of test compound at 10× test concentration in serum starvation medium with 2.5% DMSO was added to the appropriate wells. The control wells contained 20 μL of serum starvation medium with 2.5% DMSO. Plates were returned to the incubator for 2 hours. After pre-incubating the cells with the test compounds for 2 hours, 20 μL of growth factors at 10× assay concentration diluted in serum starvation media, FGF at 50 ng per mL, or VEGF (R&D systems 293-VE) at 200 ng per mL were added. The final concentration of FGF in the assay was 5 ng per mL and the final concentration of VEGF in the assays was 20 ng per mL. The growth factor free control wells had 20 μL per well of serum starvation media with the same amount of BSA as the wells with growth factors. The plates were returned to the incubator for an additional 22 hours.
After 24 hour exposure to the test compounds, the cells were labeled with BrdU (Roche Biochemicals 1-647-229), by adding 20 μL per well of BrdU labeling reagent that has been diluted (1:100) in serum starvation medium. The plates were then returned to the incubator for 4 hours. The labeling medium was removed by draining the medium onto paper towels. The cells were fixed and DNA denatured by adding 200 μL of fixation/denaturation solution to each well and incubating at room temperature for 45 minutes. The fixation/denaturation solution was drained onto paper towels and to each well was added 100 μL of anti-BrdU-POD and the wells were incubated for 2 hours at room temperature. The antibody solution was removed and the wells were each washed 3–4 times with 300 μl PBS. 100 μL of the TMB substrate solution was added to each well and the wells were incubated at room temperature for 5–8 minutes. The reaction was then stopped by adding 100 μL per well of 1 M phosphoric acid. The plates were read at 450 nm with reference wavelength of 650 nm. The percent inhibition for each test compound was calculated by subtracting the absorbency of the blank (no cells) wells from all wells, then subtracting the division of the average absorbency of each test duplicate by the average of the controls from 1. The final product was then multiplied by 100 (% of inhibition=(1−average absorbency of test duplicate/average of control)100). The IC50 value is the concentration of test compound that inhibits by 50% BrdU labeling, and is a measure of inhibition of cell proliferation. The IC50 is determined from the linear regression of a plot of the logarithm of the concentration versus percent inhibition.

[2] = molecular target: T1, KDR (Homo sapiens, UniProt P35968); assay: KDR kinase HTRF assay; format: biochemical; conditions: 0.3 mM ATP, read-out: IC50 (μM) - Enzyme Inhibition Assays KDR
T1 construct: EEE-tag
T1 sequence (P35968 20-1356, species assumed): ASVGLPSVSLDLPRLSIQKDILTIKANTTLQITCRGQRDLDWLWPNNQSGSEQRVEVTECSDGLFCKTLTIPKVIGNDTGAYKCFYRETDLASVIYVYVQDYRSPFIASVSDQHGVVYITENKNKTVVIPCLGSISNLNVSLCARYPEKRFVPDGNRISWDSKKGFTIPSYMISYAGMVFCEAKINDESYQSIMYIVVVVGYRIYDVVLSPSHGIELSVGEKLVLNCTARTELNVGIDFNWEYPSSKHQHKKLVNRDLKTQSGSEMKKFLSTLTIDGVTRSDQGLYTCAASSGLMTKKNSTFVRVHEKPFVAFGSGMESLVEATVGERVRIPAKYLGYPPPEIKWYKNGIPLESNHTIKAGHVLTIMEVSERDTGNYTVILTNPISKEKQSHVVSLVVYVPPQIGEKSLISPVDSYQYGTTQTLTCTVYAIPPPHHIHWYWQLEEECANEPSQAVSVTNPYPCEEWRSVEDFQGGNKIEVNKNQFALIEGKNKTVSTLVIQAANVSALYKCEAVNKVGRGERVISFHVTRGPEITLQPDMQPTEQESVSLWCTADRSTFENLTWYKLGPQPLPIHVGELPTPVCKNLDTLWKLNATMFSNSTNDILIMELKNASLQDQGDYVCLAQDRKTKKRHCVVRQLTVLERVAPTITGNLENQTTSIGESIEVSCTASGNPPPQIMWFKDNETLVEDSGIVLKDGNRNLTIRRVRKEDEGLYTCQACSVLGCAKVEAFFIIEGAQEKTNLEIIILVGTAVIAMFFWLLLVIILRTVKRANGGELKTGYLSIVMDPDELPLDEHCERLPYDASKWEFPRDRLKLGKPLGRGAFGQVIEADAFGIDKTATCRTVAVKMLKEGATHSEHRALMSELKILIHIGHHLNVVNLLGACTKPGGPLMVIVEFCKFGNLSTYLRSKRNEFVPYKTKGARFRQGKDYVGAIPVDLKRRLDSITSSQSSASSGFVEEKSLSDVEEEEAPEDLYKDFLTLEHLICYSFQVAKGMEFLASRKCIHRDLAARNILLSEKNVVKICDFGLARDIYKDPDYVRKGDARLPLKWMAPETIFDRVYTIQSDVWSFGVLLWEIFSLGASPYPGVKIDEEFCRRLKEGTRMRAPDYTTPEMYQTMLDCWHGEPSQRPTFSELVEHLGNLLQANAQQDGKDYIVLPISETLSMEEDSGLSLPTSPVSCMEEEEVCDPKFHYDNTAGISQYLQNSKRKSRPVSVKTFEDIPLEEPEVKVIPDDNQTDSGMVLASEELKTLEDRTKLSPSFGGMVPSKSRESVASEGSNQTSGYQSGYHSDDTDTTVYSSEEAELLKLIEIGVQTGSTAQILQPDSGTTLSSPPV
Experimental: (§1) To determine inhibition of KDR, FGFR, EGFR, and PDGFR activity, kinase assays were conducted using an HTRF (Homogeneous Time Resolved Fluorescence) assay. This assay is described in A. J. Kolb et. al., Drug Discovery Today, 1998, 3(7), p 333.
Prior to kinase reaction, recombinant EEE-tagged KDR was activated in the presence of activation buffer (50 mM HEPES, pH 7.4, 1 mM DTT, 10% glycerol, 150 mM NaCl, 0.1 mM EDTA, 26 mM MgCl2, and 4 mM ATP). The enzyme was incubated at 4° C. for 1 hour.
(§2) Kinase activity assays were performed in 96-well polypropylene plates (Falcon) with a total volume of 90 μL in each well. Each well contained 1 μM KDR substrate (Biotin-EEEEYFELVAKKKK), 1 nM activated KDR, and a test compound with one of 8 assay concentrations ranging from 100 μM to […] (1:5 serial dilution). The kinase activity assay was done in the presence of 100 mM HEPES, pH 7.4, 1 mM DTT, 0.1 mM Na2VO4, 25 mM MgCl2, 50 mM NaCl (from KDR stock solution), 1% DMSO (from compound), 0.3 mM ATP (at Km concentration) and 0.02% BSA. The reaction was incubated at 37° C. for 30 minutes. To stop the KDR reaction, 72 μL of reaction mixture was transferred into a STOP plate containing 18 μL of revelation buffer (20 mM EDTA, 50 mM HEPES, pH 7.4, 0.02% BSA, 10 nM Eu-labelled anti-pY antibody (final conc. 2 nM), and 100 nM streptavidin (final conc. 20 nM)). After mixing, 35 μL of solution was transferred into duplicate wells of a 384-well black plate (Costar), and read at 615/665 nm on a Wallac Victor 5 reader.
(§3) Compound IC50 values were determined from duplicate sets of data, and calculated by using Excel and fitting data to equation Y=[(a−b)/{1+(X/c)^d]+b, where a and b are enzyme activity in the presence of no test inhibitor compound and an infinite amount of inhibitor test compound, respectively, c is the IC50 and d is the hill constant of the compound response. The IC50 value is the concentration of test compound that reduces by 50% the enzyme activity under the test conditions described.

[3] = molecular target: PDGFR; assay: PDGFR kinase HTRF assay; format: biochemical; conditions: 2.3 μM ATP, read-out: IC50 (μM) - Enzyme Inhibition Assays PDGFR
Experimental: as §1, §2
The PDGFR kinase activity assay was performed with 1 μM substrate (Biotin-EEEEYFELV), 1.0 nM PDGFR, test compounds, 100 mM HEPES, pH 7.4, 1 mM DTT, 5 mM MgCl2, 2 mM MnCl2, 1% DMSO, 2.3 μM ATP (Km for PDGFR), 0.1 mM Na2VO4, and 0.02% BSA. The rest of the assay was performed in the same manner as the KDR assay.
as §3

| Compound | melting point | IC50 [2] | IC50 [3] | IC50 [1] |
| --- | --- | --- | --- | --- |
| COc1ccc(N2C(=O)N(c3ccccc3)c3nc(Nc4ccccc4)ncc3C2C)cc1 (racemic) [Example 1g, (±)-3-(4-Methoxy-phenyl)-4-methyl-1-phenyl-7-phenylamino-3,4-dihydro-1H-pyrimido[4,5-d]pyrimidin-2-one] | 222 to 234 °C | < 10 µM | < 10 µM | < 10 µM |
| COc1ccc(N2C(=O)N(c3ccc(OC)cc3)C(C)c3cnc(Nc4ccccc4)nc32)cc1 (racemic) [Example 4b, (±)-1,3-Bis-(4-methoxy-phenyl)-4-methyl-7-phenylamino-3,4-dihydro-1H-pyrimido[4,5-d]pyrimidin-2-one] | 228 to 234 °C | < 10 µM | < 10 µM | < 10 µM |
| COc1ccc(N2C(=O)N(c3cccc(C#N)c3)c3nc(Nc4ccccc4)ncc3C2C)cc1 (racemic) [Example 5b, (±)-3-[3-(4-Methoxy-phenyl)-4-methyl-2-oxo-7-phenylamino-3,4-dihydro-2H-pyrimido[4,5-d]pyrimidin-1-yl]-benzonitrile] | 224 to 228 °C | < 10 µM | < 10 µM | < 10 µM |
| COc1ccc(N2C(=O)N(c3ccccc3)c3nc(Nc4ccccc4)ncc3[C@@H]2C)cc1 (single isomer, unassigned) [Example 3] | 223 to 236 °C | < 10 µM | < 10 µM | < 10 µM |

More lines, main results first:

| melting point | IC50 [2] | IC50 [3] | Compound | IC50 [1] |
| --- | --- | --- | --- | --- |
| 268 to 273 °C | < 10 µM | < 10 µM | COc1ccc(N2C(=O)N(c3cccc(C(N)=O)c3)c3nc(Nc4ccccc4)ncc3C2C)cc1 (racemic) [Example 6, (±)-3-[3-(4-Methoxy-phenyl)-4-methyl-2-oxo-7-phenylamino-3,4-dihydro-2H-pyrimido[4,5-d]pyrimidin-1-yl]-benzamide] | < 10 µM |
| 242 to 250 °C | < 10 µM | < 10 µM | COc1ccc(N2C(=O)N(c3ccccc3)c3nc(Nc4ccccc4)ncc3C2C)c(F)c1 (racemic) [Example 8d, (±)-3-(2-Fluoro-4-methoxy-phenyl)-4-methyl-1-phenyl-7-phenylamino-3,4-dihydro-1H-pyrimido[4,5-d]pyrimidin-2-one] | < 10 µM |
| 223 to 228 °C | < 10 µM | < 10 µM | COc1ccc(N2C(=O)N(c3cccc(C#N)c3)c3nc(Nc4ccccc4)ncc3C2C)c(F)c1 (racemic) [Example 9b, (±)-3-[3-(2-Fluoro-4-methoxy-phenyl)-4-methyl-2-oxo-7-phenylamino-3,4-dihydro-2H-pyrimido[4,5-d]pyrimidin-1-yl]-benzonitrile] | < 10 µM |
| 282 to 286 °C | < 10 µM | < 10 µM | COc1ccc(N2C(=O)N(c3cccc(C(N)=O)c3)c3nc(Nc4ccccc4)ncc3C2C)c(F)c1 (racemic) [Example 10, (±)-3-[3-(2-Fluoro-4-methoxy-phenyl)-4-methyl-2-oxo-7-phenylamino-3,4-dihydro-2H-pyrimido[4,5-d]pyrimidin-1-yl]-benzamide] | < 10 µM |
| 195 to 198 °C | < 10 µM | < 10 µM | COc1ccc(N2C(=O)N([C@H](C)CO)c3nc(Nc4ccccc4)ncc3[C@@H]2C)cc1 [Example 15b, 1-(2-Hydroxy-1-(R)-methyl-ethyl)-3-(4-methoxy-phenyl)-4-(S)-methyl-7-phenylamino-3,4-dihydro-1H-pyrimido[4,5-d]pyrimidin-2-one] | < 10 µM |
